Test results from US20170197980A1, “N-(4-PHENYL)-N'-(3-FLUOROPHENYL)UREA DOCUSATE” (AbbVie Inc., priority 2014, published 2017).
≈ marks a conversion by molar mass, not a printed value. Entries after “also recorded” stand apart in the source; their conditions may differ.

Tests used:
Assay type in all cases: physicochemical
[1] = Solubility in SEDDs (lipid) vehicle, saturated solution
Protocol: A saturated solution of the docusate salt in the SEDDs vehicle and a saturated solution of the tosylate salt in the SEDDs vehicle were prepared. The SEDDs vehicle was 15 wt % Capmul® MCM C10, 50 wt % Polysorbate 80, and 35 wt % Miglyol 812.

[2] = Stability, droplet size (DLS) and appearance of the SEDD emulsion after 1:9 dilution in water
Protocol: The docusate:SEDD concentrate was diluted in water at a 1:9 ratio, resulting in an emulsion at a concentration of 2.3 mg/mL. […] The emulsion was stable at native pH 4 for more than 2 weeks at room temperature, with no significant change in particle size analysis by dynamic light scattering (DLS).
The tosylate:SEDD concentrate was diluted in water at a 1:9 ratio, resulting in an emulsion at a concentration of 2.3 mg/mL.

[3] = Microcentrifuge dissolution in simulated gastric and intestinal media (GB/IB transfer test); details: for dissolution in simulated gastric media: 0.01N HCl, pH 2.0, 1000 μg/mL; for dissolution in simulated intestinal media (IB): 0.5 wt % SIF powder in PBS, pH 6.5, 500 μg/mL
Protocol: Microcentrifuge dissolution of salts in simulated gastric and intestinal media
Dissolution of tosylate and docusate salts in simulated GB/IB transfer dissolution test was measured and compared to free base. The simulated gastric media was 0.01N HCl, pH 2.0 (concentration 1000 μg/mL), and the simulated intestinal media was 0.5 wt % SIF powder in PBS, pH 6.5 (500 μg/mL).
Once the pH is raised to intestinal pH, the drug converts back to a free base that precipitates.

[4] = Solubility in organic solvents, potency measurement by HPLC
Protocol: In a glass vial, N-(4-{4-amino-7-[1-(2-hydroxyethyl)-1H-pyrazol-4-yl]thieno[3,2-c]pyridin-3-yl}phenyl)-N′-(3-fluorophenyl)urea free base (501 mg, 1.02 mmol) was slurried in 20 ml of THF using a magnetic stir bar. The free base was converted to the HCl salt in-situ by addition of 5.0 ml of aqueous 0.207 N HCl. Docusate sodium (465 mg, 1.05 mmol) was added and the mixture was stirred until all solids dissolved. Solvent was removed by rotoevaporation. Acetone, 15 ml, was added to the flask with mixing until most of the solid has dissolved, resulting in a suspension of NaCl particles. The sample was then filtered through a 0.45 µm syringe filter (to remove the NaCl particles) followed by rotoevaporation to remove acetone. The sample was placed on a vacuum line to dry for 2 hours. The above step was repeated with 15 ml acetone and filtration through a 0.22 µm filter. After removing the acetone by rotoevaporation, the sample was dried under vacuum overnight. The sample appears to be amorphous to the naked eye. […] Solubilities were determined by potency measurements using high-performance liquid chromatography (HPLC).

Solubility in water = details: pH 7.4
[5] = 15 wt % Capmul MCM C10, 50 wt % Polysorbate 80, 35 wt % Miglyol 812

SMILES: CCCCC(CC)COC(=O)CC(C(=O)OCC(CC)CCCC)S(=O)(=O)O.Nc1ncc(-c2cnn(CCO)c2)c2scc(-c3ccc(NC(=O)Nc4cccc(F)c4)cc3)c12 [docusate salt, N-(4-{4-amino-7-[1-(2-hydroxyethyl)-1H-pyrazol-4-yl]thieno[3,2-c]pyridin-3-yl}phenyl)-N′-(3-fluorophenyl)urea docusate salt]
- solubility in the SEDD vehicle [1, 5]: 23 mg/mL
- solubility in lipid vehicles (in words) ([1]; lipid vehicles): high solubility in lipid vehicles
- stability in emulsions (in words) [2]: remain stable in emulsions over a period of several days
- dissolution in simulated gastric media [3]: does not dissolve in acidic pH
- dissolution in simulated intestinal media (IB) [3]: significantly higher solubility profile during the first 90 minutes in IB than either free base or the tosylate salt; also recorded: appreciable solubility in IB solution
- solubility in tetrahydrofuran (THF) ([4]; THF): greater than 45 mg/ml
- solubility in acetone ([4]; acetone): > 47 mg/mL
- solubility in dichloromethane ([4]; dichloromethane): > 75 mg/mL
- solubility in ethanol ([4]; ethanol): > 51 mg/mL

SMILES: Cc1ccc(S(=O)(=O)O)cc1.Nc1ncc(-c2cnn(CCO)c2)c2scc(-c3ccc(NC(=O)Nc4cccc(F)c4)cc3)c12 [tosylate salt, N-(4-{4-amino-7-[1-(2-hydroxyethyl)-1H-pyrazol-4-yl]thieno[3,2-c]pyridin-3-yl}phenyl)-N′-(3-fluorophenyl)urea tosylate salt]
- solubility ([1]; SEDDs vehicle, oil or lipid, thermodynamic from solid, 15 wt % Capmul MCM C10, 50 wt % Polysorbate 80, 35 wt % Miglyol 812, read-out: solubility in the SEDD vehicle): 22 mg/mL
- dissolution in simulated gastric media [3]: significant solubility at the lower pH
- dissolution in simulated intestinal media (IB) [3]: precipitates
- solubility ([4]; organic solvent or mixture): > 25 mg/mL

SMILES: Nc1ncc(-c2cnn(CCO)c2)c2scc(-c3ccc(NC(=O)Nc4cccc(F)c4)cc3)c12 [free base, N-(4-{4-amino-7-[1-(2-hydroxyethyl)-1H-pyrazol-4-yl]thieno[3,2-c]pyridin-3-yl}phenyl)-N′-(3-fluorophenyl)urea free base]
- solubility in the SEDD vehicle [1, 5]: 2.7 mg/mL (≈ 5.53 mM)
- dissolution in simulated gastric media [3]: significant solubility at the lower pH
- dissolution in simulated intestinal media (IB) [3]: precipitates
- solubility in water (Solubility in water): less than 30 ng/ml
